This is an account of results in patent publication US10624881B2, “Methods for inducing apoptosis in cancer cells” (Health Research, Inc., priority 2015, dated 2020).

pIC50: −log10 of the molar value. Where two headings read alike, the source gives them in different places.

Series [1] addresses T1, Mdm2 RING domain (Homo sapiens, UniProt Q00987, DEL223-299).
T1 construct: made in house; host or cells: insect cells (recombinant baculovirus)
Put plainly: In vitro autoubiquitination of Mdm2 RING domain (RING-RING homo-dimers). The class given is biochemical. The conditions noted are these: compound 10 μM, Western blot. How it is done: In vitro ubiquitination assays were performed with Mdm2 (100 nM) and MdmX (200 nM) in the presence of nothing (C), DMSO (10 μM) or indicated compounds (10 μM), followed by WB of Mdm2 with anti-HA antibody. […] In vitro ubiquitination assays were performed with Mdm2-RING domain (100 nM) in the presence of nothing (C), DMSO (10 μM) or indicated compounds (10 μM), followed by WB of Mdm2 with anti-HA. […] FLAG-MdmX and HA-Mdm2-RING domain (HA-Mdm2R) were incubated in vitro in the presence of nothing (positive control), or DMSO (10 μM) or indicated compounds (10 μM), followed by pulldown with anti-FLAG-beads (M2) and WB of MdmX and Mdm2-RING domain with anti-FLAG and anti-HA antibodies respectively. The negative control (Neg) contains all components as in positive control sample except for missing of FLAG-MdmX.
To directly evaluate the ability of these compounds in inhibiting Mdm2-MdmX interaction, we performed in vitro pulldown experiments using recombinant FLAG-MdmX and HA-Mdm2RING proteins. After incubation of the two proteins in test tubes in the presence or absence of test compounds for 30 min at RT, FLAG-MdmX was pulled down with anti-FLAG beads followed by detection of MdmX-bound HA-Mdm2RING domain by Western blotting for HA-tag.
(§1) Materials and Methods. Plasmids, Protein Purification, and Chemical Reagents. FLAG-MdmX and HA-Mdm2 (human) constructs for insect cell expression and protein purification were described previously. HA-ubiquitin construct was generated by inserting HA-tag to the N-terminus of ubiquitin in pET28a vector. The mammalian expression plasmid pcDNA3.1-HdmX was a gift from Dr. Gokul Das (Roswell Park Cancer Institute).
On the technique in general: A western blot detects proteins with antibodies after separation by electrophoresis.

In series [2] the target is T2, Mdm2-MdmX E3 ligase (Homo sapiens, UniProt O15151).
T2 construct: FLAG; made in house; host or cells: insect cells (baculovirus)
T2 sequence (O15151 1-490): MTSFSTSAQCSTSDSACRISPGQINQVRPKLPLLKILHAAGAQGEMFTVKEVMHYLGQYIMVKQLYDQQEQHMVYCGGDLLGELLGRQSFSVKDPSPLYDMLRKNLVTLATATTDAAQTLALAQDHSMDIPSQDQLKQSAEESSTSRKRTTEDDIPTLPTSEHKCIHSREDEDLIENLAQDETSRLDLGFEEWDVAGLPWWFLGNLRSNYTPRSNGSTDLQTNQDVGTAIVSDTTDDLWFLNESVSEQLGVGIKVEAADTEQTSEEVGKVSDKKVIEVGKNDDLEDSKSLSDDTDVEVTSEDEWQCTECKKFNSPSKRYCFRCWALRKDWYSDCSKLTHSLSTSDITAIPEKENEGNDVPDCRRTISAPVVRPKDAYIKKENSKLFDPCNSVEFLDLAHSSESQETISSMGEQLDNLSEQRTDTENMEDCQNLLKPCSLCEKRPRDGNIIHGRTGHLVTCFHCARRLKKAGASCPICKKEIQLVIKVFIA
Put plainly: In vitro MdmX-stimulated Mdm2 autoubiquitination (Western blot). The class given is biochemical. To be noted: compound 10 μM.
Excerpt: as §1
In vitro validation assays by Mdm2 autoubiquitination and p53 ubiquitination by Mdm2-MdmX and NEDD4-1 autoubiquitination. In order to test the compound specificity, we used two sets of ubiquitination reaction. One is MdmX stimulated Mdm2 autoubiquitination, the other is NEDD4-1 autoubiquitination. […] The former reaction includes 100 nM HA-tagged Mdm2 and 200 nM MdmX, and latter reaction includes 200 nM HA-tagged NEDD4-1. After adding compound to final concentration of 10 μM, the reaction was started by incubation at 30° C. in a water bath for one hour. Then the reaction was stopped by adding SDS sample buffer, followed by SDS-PAGE and Western blot analysis for HA or NEDD4-1. In vitro assays for p53 ubiquitination by Mdm2-MdmX were performed as described previously. Briefly, reactions were carried out as described above for Mdm2 autoubiquitination except for addition of 100 nM p53. Compounds or DMSO of final concentrations of 10 μM were added in the reaction before starting the reaction at 30° C. for 1 h followed by WB of p53 with DO-1 antibody.

The test system of series [3] is RL4RH cells. The series is described as follows: RRCL proliferation assay, drug-resistant lymphoma RL4RH cells. The format is cell-based. To be noted: for pIC50: 3-day treatment.
The subject of series [4] is mouse bone marrow cells. The conditions noted are these: for pIC50: read-out: IC50, CFU-GM, mouse bone marrow cells, 7-day continuous treatment. How it is done:
For the bone marrow toxicity assay, the following method was used. 400 μL of murine marrow mononuclear cells (2.0×10^5/mL) in IMDM containing 20% FBS, 10 units/mL recombinant murine GM-CSF, 10% of a 10× drug solution or control solution (DMSO), and 0.3% agarose were pipetted into microwells containing a 0.4-mL underlayer of IMDM and 0.3% agarose. The cultures were allowed to gel at 4° C. for 15 min and incubated at 37° C. in a fully humidified atmosphere of 5% CO2 in air for 7 days. CFU-GM colonies (aggregates of ≥40 cells) were counted with an inverted microscope using phase contrast. Percent survivals were calculated as 100× (the number of colonies in the drug-treated groups divided by the number of colonies in the vehicle control-treated group). IC50 values were determined.

Series [5] relates to NALM6. Put plainly: Cell proliferation assay, NALM6 cells. The format is cell-based. To be noted: 72 h, read-out: IC50 of Compounds, NALM6.
Series [6] relates to Raji4RH cells. The series is described as follows: RRCL proliferation assay, drug-resistant lymphoma Raji4RH cells. The class given is cell-based. The conditions noted are these: for pIC50: 3-day treatment.
The subject of series [7] is NALM6-shp53. Put plainly: Cell proliferation assay, NALM6-shp53 cells (p53 shRNA knockdown). The format is cell-based. Here is the method:
Proliferation and apoptosis assays. Growth inhibition assays and apoptosis assays were carried out as described previously.

Series [8] relates to NALM6 cells. The series is described as follows: Flow cytometry of sub-G1 population in NALM6 cells (PI staining). The format is cell-based. An excerpt: Sub-G1 fractions of each treatment were shown.
Proliferation and apoptosis assays.
A general note: A flow cytometer gives signals particle by particle.

For series [9], the system named is p53 pathway in HCT8 cells. To be noted: Western blot, time- and concentration-dependent.
Series [10] relates to p53 pathway in NALM6 cells.
Series [11] has as its system NALM6-shp53 cells. Put plainly: Apoptosis markers in NALM6-shp53 cells (Western blot). The format is cell-based. To be noted: NALM6-shp53 versus NALM6, 24 h. The text has this:
Actin was the loading control.

In general, pIC50 refers to the negative decadic logarithm of the IC50, by convention in mol/L. A word on the IC50: it is the midpoint of a concentration-inhibition curve.

T1 sequence (Q00987 with tags, fused parts or gaps isoform Q00987-2 DEL28-104): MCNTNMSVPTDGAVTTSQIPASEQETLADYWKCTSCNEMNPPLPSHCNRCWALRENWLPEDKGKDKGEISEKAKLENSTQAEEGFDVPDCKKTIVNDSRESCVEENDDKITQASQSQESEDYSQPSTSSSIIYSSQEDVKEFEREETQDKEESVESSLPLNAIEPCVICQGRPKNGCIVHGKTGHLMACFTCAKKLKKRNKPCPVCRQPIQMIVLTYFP

As for `Oc1c(C(Nc2ccccn2)c2ccc(Cl)c(Cl)c2)ccc2cccnc12` (stereo not shown) [MMRi61], the “inhibition of autoubiquitination of Mdm2 RING domain (RING-RING homo-dimers)” value (“inhibition … (RING-RING homo-dimers)” below) in [1] was “do not inhibit”. In addition, the “inhibition of Mdm2 autoubiquitination stimulated by MdmX” value (shortened to “inhibition … by MdmX”) in series [2] is given as “inhibit”.

Regarding `COc1cc([C@@H]2c3cc4c(cc3[C@@H](O[C@@H]3O[C@@H]5CO[C@@H](C)O[C@H]5[C@H](O)[C@H]3O)[C@H]3COC(=O)[C@H]23)OCO4)cc(OC)c1O` [Etoposide, etoposide], the results for the negative logarithm of the IC50 (pIC50) in series [3], in series [4] and in series [6] were 5.20, 6.49 and 5.77, respectively. Moreover, the “TW BM/CC, RL4RH” value in [3] (therapeutic window, CFU-GM IC50 versus RL4RH IC50) is −19x. Further, the “fold more toxic to normal mouse bone marrow cells” value in series [4] is given as 5 fold. Moreover, the “fold more toxic to normal mouse bone marrow cells relative to RRCLs” value in [4] was 5-20 fold. The IC50 in [5] (listed as marked (nM)) was determined as 2.23 nM; in series [7] (72 h, listed as marked (nM), read-out: IC50 of Compounds, NALM6-shp53), 19.9 nM. In addition, the “TW BM/CC, Raji4RH” value in series [6] (therapeutic window, CFU-GM IC50 versus Raji4RH IC50) was −5x. This compound also registered a Fold change in [7] (IC50 NALM6-shp53 versus NALM6, 72 h) of 9x.

Take `COc1ccc(C2=N[C@@H](c3ccc(Cl)cc3)[C@@H](c3ccc(Cl)cc3)N2C(=O)N2CCNC(=O)C2)c(OC(C)C)c1` [Nutlin3a, reference compound]: the sub-G1 population worked out at 0.4% in [8] (0.5 μM, 48 h); 0.8% in series [8] (1 μM, 48 h); 3.0% in series [8] (2 μM, 48 h); 1.3% in series [8] (2 μM, single treatment, combination experiment). Also, the “effect on MdmX level in HCT8 cells” value in [9] was “not obvious”. In series [10] (1 μM, time course), the “PUMA induction in NALM6 cells” value is “stronger p53 accumulation and PUMA induction than MMRi64”. In addition, the “p21 induction in NALM6 cells” value in [10] (1 μM, time course to 24 h) is reported as “strong induction of growth-arresting effector p21”. In addition, in series [10] (Western blot), the “effect on Mdm2 expression in NALM6 cells” value is on record as “strong induction of Mdm2 protein”. In series [10] (Western blot), the “effect on MdmX levels in NALM6 cells” value was “slightly decreased MdmX levels”. The pIC50 in [5] was 5.90.

Turning to `Oc1c(C(Nc2ccccn2)c2cccc(Cl)c2Cl)ccc2cccnc12` (stereo not shown) [MMRi62], the “inhibition … (RING-RING homo-dimers)” value in series [1] is listed as “do not inhibit”. Moreover, the “inhibition … by MdmX” value in series [2] is reported as “inhibit”.

With `Oc1c(C(Nc2ccccn2)c2cccc(Br)c2)cc(Cl)c2cccnc12` (stereo not shown) [MMRi63], in series [1], the “inhibition … (RING-RING homo-dimers)” value is recorded as “do not inhibit”. Moreover, the “inhibition … by MdmX” value in series [2] was “inhibit”.

Turning to `Cc1ccnc(NC(c2cccc(Cl)c2Cl)c2ccc3cccnc3c2O)c1` (stereo not shown) [MMRi64], the sub-G1 population was found to be 0.73% in series [8] (0.2 μM, single treatment, combination experiment); 2.5% in series [8] (0.4 μM, single treatment, combination experiment); 7.3% in [8] (0.5 μM, 48 h); 20% in [8] (1 μM, 48 h). Moreover, the pIC50 in [3] was 6.00; in series [4], 5.80; in series [5], 6.84; in series [6] it was 6.74. Besides, the “effect of shRNA knockdown of p53 on apoptosis induction” value in [11] is reported as “did not affect apoptosis induction”.

Consider `Oc1c(C(Nc2ccccn2)c2ccccc2Br)cc(Cl)c2cccnc12` (stereo not shown) [MMRi65], for which the “inhibition … (RING-RING homo-dimers)” value in series [1] is “do not inhibit”. For the same compound, the “inhibition … by MdmX” value in series [2] was “inhibit”.
